We go through 63 compounds from PubChem BioAssay AID1645862 (Buhrlage Lab, Dana-Farber Cancer Institute and Novartis …, 2021).

Usually IC50 stands for the midpoint of a concentration-inhibition curve.

Each structure is given as a SMILES string. The source made the active and inactive calls. How the calls were made is not given here.

In the assay the target is Ubiquitin carboxyl-terminal hydrolase 8 (Homo sapiens) (UniProt P40818). Kind of assay: Ubiquitin-specific protease 8 inhibitors, concentration-effect, biochemical, validation of initial actives (AID 1645862).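 Further: potency reflects inhibition of USP8 cleavage of a ubiquitin rhodamine substrate.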 The settings on record: recombinant USP8 deubiquitinase activity assay.
Sequence of Ubiquitin carboxyl-terminal hydrolase 8 (Homo sapiens) (P40818 whole entry, looked up): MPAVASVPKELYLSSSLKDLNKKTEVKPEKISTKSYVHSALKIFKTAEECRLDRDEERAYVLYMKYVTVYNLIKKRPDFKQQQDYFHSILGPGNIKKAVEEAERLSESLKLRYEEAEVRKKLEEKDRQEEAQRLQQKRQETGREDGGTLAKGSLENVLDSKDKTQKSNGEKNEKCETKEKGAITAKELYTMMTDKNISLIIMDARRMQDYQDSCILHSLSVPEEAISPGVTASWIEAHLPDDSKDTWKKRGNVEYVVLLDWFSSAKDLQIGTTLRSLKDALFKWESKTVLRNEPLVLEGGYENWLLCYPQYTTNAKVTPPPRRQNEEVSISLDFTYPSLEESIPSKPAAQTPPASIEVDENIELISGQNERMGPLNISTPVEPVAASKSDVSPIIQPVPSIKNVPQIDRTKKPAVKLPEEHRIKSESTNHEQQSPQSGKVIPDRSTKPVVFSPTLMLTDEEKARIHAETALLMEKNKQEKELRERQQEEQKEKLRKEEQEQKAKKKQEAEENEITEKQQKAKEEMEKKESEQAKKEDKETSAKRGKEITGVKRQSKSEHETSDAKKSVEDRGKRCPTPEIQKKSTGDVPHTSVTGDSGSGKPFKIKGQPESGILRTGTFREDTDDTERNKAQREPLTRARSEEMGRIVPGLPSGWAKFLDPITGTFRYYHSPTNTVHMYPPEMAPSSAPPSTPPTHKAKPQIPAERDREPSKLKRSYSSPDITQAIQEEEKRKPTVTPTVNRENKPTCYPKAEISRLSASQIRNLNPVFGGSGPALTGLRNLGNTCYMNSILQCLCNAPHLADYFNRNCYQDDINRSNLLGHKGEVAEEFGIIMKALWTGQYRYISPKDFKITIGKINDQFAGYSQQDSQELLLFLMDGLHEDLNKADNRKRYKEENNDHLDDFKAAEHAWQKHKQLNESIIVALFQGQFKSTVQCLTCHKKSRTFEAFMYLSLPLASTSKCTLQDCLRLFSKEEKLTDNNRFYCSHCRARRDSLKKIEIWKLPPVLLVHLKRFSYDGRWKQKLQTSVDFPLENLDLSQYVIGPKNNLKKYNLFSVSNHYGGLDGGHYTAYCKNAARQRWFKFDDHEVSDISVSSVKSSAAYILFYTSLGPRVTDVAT
On to `Cc1ccc(NC(=O)c2cc(-c3ccncc3)n[nH]2)cc1Cl`, for which the IC50 was > 40 µM (inactive).
In the case of `CCOc1ccc(NC(=O)Cn2c(=O)n(CCC(=O)NCc3ccccc3OC)c(=O)c3ccccc32)cc1`, the IC50 was > 40 µM (inactive).
On to `CSc1nc2ncn(CC(=O)Nc3ccc(Br)cc3)c(=O)c2s1`, for which the IC50 is > 40 µM (inactive).
`COc1ccc(-c2cc3c(=O)n(CC(=O)Nc4ccccc4C)ccn3n2)cc1`: the IC50 is > 40 µM (inactive).
The same measure for `COc1ccc(OC)c(NC(=O)Cn2c(=O)n(CC3CCC(C(=O)NCCc4ccccc4)CC3)c(=O)c3ccccc32)c1` (stereo not drawn): > 40 µM (inactive); for `Cc1cccc(C)c1NC(=O)CN1C(=O)CC(c2ccccc2)=Nc2ccccc21`: > 40 µM (inactive); for `CC(=O)c1ccc(NC(=O)CCc2c(C)c3c(C)nn(-c4ccccc4)c3n(C)c2=O)cc1`: > 40 µM (inactive).
The figure for `Cc1ccccc1-n1ccc2nc(N3CCCC3)ncc2c1=O` is > 40 µM (inactive); for `Nc1ncnc2c1ncn2[C@@H]1O[C@H](CO)C[C@@H]1O` it is > 40 µM (inactive).
The figure for `O=C(NCc1ccc(F)cc1)c1cccc(Nc2nc3ccccc3n3cnnc23)c1` is > 40 µM (inactive); for `COc1cccc(C2c3[nH]c4ccccc4c3C[C@@H]3C(=O)N(CC(O)c4ccccc4)CC(=O)N23)c1` (stereo partly drawn) it is > 40 µM (inactive).
In the case of `COC(=O)c1ccccc1NC(=O)Cn1c(=O)n(CCCC(=O)NCc2ccco2)c(=O)c2ccccc21`, the IC50 is > 40 µM (inactive).
The same measure for `CCC(=O)N1c2ccccc2NC2=C(C(=O)CC(c3ccccc3OCc3ccccc3)C2)C1c1ccccc1` (stereo not drawn): > 40 µM (inactive); for `NS(=O)(=O)c1ccc(CNC(=O)c2ccc(Cl)c(S(=O)(=O)Nc3cc(Cl)ccc3Cl)c2)cc1`: > 40 µM (inactive).
In the case of `Cc1ccc(C)c(Cn2cnc3c(nnn3-c3cccc(F)c3)c2=O)c1`, the IC50 was > 40 µM (inactive).
In the case of `O=C(Cn1cc(C(=O)c2ccc(F)cc2)c(=O)c2ccccc21)Nc1ccc2c(c1)OCO2`, the IC50 is > 40 µM (inactive).
Take `Cc1ccc(-n2nc(C)c3c2NC(=O)CC3C(=O)c2cc3ccccc3o2)cc1C` (stereo not drawn): the IC50 is > 40 µM (inactive).
Regarding `O=C(Cn1cnc(-c2ccccc2)cc1=O)Nc1ccc(Oc2ccccc2)cc1`, the IC50 was > 40 µM (inactive).
In the case of `O=C(c1cccnc1)N1CCN(c2cc(-c3ccccc3)[nH]n2)CC1`, the IC50 was > 40 µM (inactive).
The figure for `O=C(CCc1nnc2n(Cc3ccccc3Cl)c(=O)c3ccccc3n12)NCc1ccccc1` is > 40 µM (inactive); for `O=C1c2ccccc2-c2nnc(-c3ccncc3)cc21` it is 14 µM.
Turning to `O=C(NCc1ccc2c(c1)OCO2)c1cc2c(s1)CCC2`, the IC50 is 16.1 µM.
For `O=C(Nc1ccc(F)cc1F)NC1CCN(c2ccccc2)C1=O` (stereo not drawn), the IC50 was > 40 µM (inactive).
The figure for `Cc1ccc(C(=O)Nc2ccc3c(c2)Sc2ncccc2C(=O)N3C(C)C)cc1C` is > 40 µM (inactive); for `Cc1cccc(NC(=O)c2cc(-c3ccc(C)c(C)c3O)n[nH]2)c1` it is > 40 µM (inactive).
As for `O=C(COc1ccc(C2CCCCC2)cc1)Nc1ccc(-c2nn3cnnc3s2)cc1`, the IC50 was > 40 µM (inactive).
For the compound `CCOc1ccc(C2/C(=C(\O)c3ccccc3)C(=O)C(=O)N2c2nc3ccc(F)cc3s2)cc1` (stereo not drawn), the IC50 is > 40 µM (inactive).
The same measure for `Cc1ccc(S(=O)(=O)NCc2ccc(C(=O)NCCc3ccc(S(N)(=O)=O)cc3)cc2)cc1`: > 40 µM (inactive); for `COc1ccccc1C(=O)N1CCC[C@H](Cn2nnc(-c3cccnc3)n2)C1`: > 40 µM (inactive); for `O=C(CNC(=O)OCc1ccccc1)Nc1ccc(Br)cc1C(=O)c1ccccc1Cl`: > 40 µM (inactive).
As for `O=C(OC1CSc2nc3ccccc3n2C1)c1ccc([N+](=O)[O-])o1` (stereo not drawn), the IC50 is 21.4 µM.
`Cc1ccccc1NC(=O)N1CCC(CC(=O)N2CCCCC2)CC1`: the IC50 was > 40 µM (inactive).
The figure for `Cc1c(-c2nsc(NC(=O)c3ccc(Cl)cc3)n2)nnn1-c1ccccc1F` is > 40 µM (inactive); for `CCc1ccc(NC(=O)Cn2c(=O)n(Cc3ccccc3)c(=O)c3nn(CC)cc32)cc1` it is > 40 µM (inactive).
The figure for `COc1c(C)c(OC(=O)c2c(C)c(C)c(OC(=O)c3c(C)c(C)c(O)c(C)c3O)c(C)c2OC)c(C)c(C)c1C(=O)O` is > 40 µM (inactive); for `O=C(CC1C(=O)Nc2nc(-c3ccccc3)nn21)Nc1cccc2ccccc12` (stereo not drawn) it is > 40 µM (inactive); for `CCC(C)N1CNc2c(c(=O)[nH]c(=O)n2Cc2ccco2)C1` (stereo not drawn) it is > 40 µM (inactive).
The figure for `O=C(CCCn1c(=O)c2ccccc2n(CC(=O)c2ccc(Br)cc2)c1=O)NC1CCCC1` is > 40 µM (inactive).
For the compound `N#C/C(=C\c1ccccc1F)c1nnc(N)s1`, the IC50 was > 40 µM (inactive).
For the compound `COc1cccc(NC(=O)CCc2nnc3n(CCCOC(C)C)c(=O)c4ccccc4n23)c1`, the IC50 is > 40 µM (inactive).
The figure for `COc1cccc2cc(-c3nnc(SCC(=O)c4ccc(F)cc4)n3C)oc12` is > 40 µM (inactive).
`CC(C)(C)c1ccc(C2CC(=O)C3=C(C2)Nc2ccccc2N(C(=O)CCC(=O)O)C3c2cccc([N+](=O)[O-])c2)cc1` (stereo not drawn): the IC50 was > 40 µM (inactive).
Turning to `O=C(Nc1ccccc1)[C@@H]1[C@@H]2C(=O)N(c3ccc([N+](=O)[O-])cc3)C(=O)[C@@H]2[C@H]2c3ccccc3C=CN12`, the IC50 was 34 µM.
The figure for `CC(=O)Nc1ccc(S(=O)(=O)NCc2ccc(C(=O)NCCc3ccc(Cl)cc3)cc2)cc1` is > 40 µM (inactive); for `CS(=O)(=O)c1cccc(-c2nnc(NC(=O)c3ccc(Cc4ccccc4)cc3)o2)c1` it is > 40 µM (inactive); for `COc1ccc(NC(=O)Cn2cc(C(=O)c3ccc(F)cc3)c(=O)c3cc(C)ccc32)cc1OC` it is > 40 µM (inactive).
The figure for `Cc1ccc(NC(=O)Cc2nnc3c(-c4nc(C5CC5)no4)cccn23)cc1` is 18.7 µM; for `O=S(=O)(c1ccccc1Cl)N1CCN(c2ccc3nnc(-c4ccco4)n3n2)CC1` it is > 40 µM (inactive).
As to `O=C1Cc2ccccc2C(=O)N1c1ccc2c(c1)OCO2`, the IC50 was 38.3 µM.
The figure for `Cc1cccc(C)c1NC(=O)Cn1c(=O)n(CCCCC(=O)NCc2ccc3c(c2)OCO3)c(=O)c2ccccc21` is > 40 µM (inactive); for `O=C(/C=C/c1c(F)cccc1Cl)N1CCc2ccccc2C1` it is 22 µM.
The figure for `COc1ccccc1-c1noc(CCCC(=O)Nc2ccccc2)n1` is > 40 µM (inactive).
The figure for `Cn1c2ccccc2c(=O)c2c(=O)n(Cc3ccco3)c(-c3ccccc3F)nc21` is 29.4 µM; for `CCn1cc2c(n1)c(=O)n(Cc1ccccc1)c(=O)n2CC(=O)Nc1ccc(C(C)C)cc1` it is > 40 µM (inactive); for `Cc1cc(NS(=O)(=O)c2ccc(NC(=O)c3ccc(N4CCCC4)c([N+](=O)[O-])c3)cc2)no1` it is > 40 µM (inactive).
As to `Cc1noc(-c2cc(=O)n(CC(=O)Nc3ccccc3Cl)c3ccccc23)n1`, the IC50 was > 40 µM (inactive).
As for `COc1ccc(Oc2cc3n(c(=O)n2)CCc2cc(OC)c(OC)cc2-3)cc1`, the IC50 is > 40 µM (inactive).
The same measure for `CSc1cccc(NC(=O)COc2cccc3ccccc23)c1`: > 40 µM (inactive); for `COc1ccc(-c2cc3c(=O)n(CC(=O)NCc4ccccc4)ncn3n2)cc1`: > 40 µM (inactive); for `O=C(Nc1ccc2snnc2c1)Nc1ccc(F)cc1F`: > 40 µM (inactive).
The figure for `COC(=O)c1ccc(C2c3[nH]c4ccccc4c3C[C@@H]3C(=O)N(c4ccc5c(c4)OCCO5)C(=O)N23)cc1` (stereo partly drawn) is > 40 µM (inactive); for `O=C(Nc1ccccc1Cl)c1cc(-c2ccncc2)n[nH]1` it is > 40 µM (inactive); for `COc1ccc(-c2nc(-c3cc4cc(OC)ccc4[nH]c3=O)no2)cc1` it is > 40 µM (inactive).
